Patent publication US20130023485A1, “PARENTERAL FORMULATIONS OF PEPTIDES FOR THE TREATMENT OF SYSTEMATIC LUPUS ERYTHEMATOSUS” (Teva Pharmaceutical Industries, Ltd., priority 2003, published 2013)
Where two headings read alike, the source gives them in different places.

How the values were obtained:
[1] = tested on: PBL of SLE patients stimulated with human 16/6Id mAb; type: cell-based; details: for inhibition of proliferative responses to human 16/6Id mAb: PBL of one SLE patient
Method: Cells were then harvested and radioactivity was counted using a β-counter. Results were expressed as mean counts per minute (cpm) of triplicate cultures. Stimulation indices (the ratio of mean cpm at the optimal concentration of 16/6Id to mean cpm without 16/6Id) were then calculated. A stimulation index (SI)≧2 was considered positive. […] Inhibition of above 50% of the proliferative capacity was considered positive. The Table represents the highest positive inhibition capacity for each peptide. […] Both peptides inhibited the proliferation of PBL of 18/19(95%) of responders tested. It can also be seen in the Table that the magnitudes of inhibitions were similar for both peptides. Thus, it can be concluded that peptides based on CDR1 and CDR3 of the human 16/6Id mAb are efficient inhibitors of the proliferation of PBL of SLE patients to the human 16/6Id mAb.

SLE subjects = test: Phase Ia clinical study, single s.c. dose, tolerability and safety; type: in vivo, human
Method: Thirty-six (36) subjects participated in the study. To be eligible for inclusion in the study, SLE patients must have fulfilled at least four criteria used for the diagnosis of lupus by the American College of Rheumatology. Patients must also have had stable, mild/moderate disease and score less than or equal to 10 on the SLE Disease Activity Index, SLEDAI. […] A standard battery of safety tests, including blood and urine collection for laboratory tests, was performed at screening, during the day of dosing, at 24 hours post-dose and at 2, 4 and 8 weeks following dosing. Prior to dosing, and on scheduled follow-up visits, blood samples were withdrawn for SLE-related immunological tests, anti-Compound 1 antibodies and PBL proliferation assay. […] The following safety parameters were assessed at Screening, during the hospitalization and at follow-up visits including Termination visit: vital signs (systolic blood pressure, diastolic blood pressure, pulse, oxygen saturation, temperature and weight), 12-lead ECG, change in physical examination and clinical routine laboratory safety tests. Adverse events were recorded at the Dosing Day and at each visit thereafter. SLE-related immunological tests were performed at Screening, during the hospitalization and at follow-up visits including Termination visit. […] Disease activity assessment using the SLE disease activity index score, year 2000 updated (SLEDAI 2K) was assessed at Screening, during the hospitalization and at follow-up visits including Termination visit.

LN cells = test: IFN-γ secretion by cultured LN cells of immunized and treated mice (ELISA); type: in vivo, BALB/c mice
Method: A group of 20 mice were immunized with 50 μg/mouse of Compound 1 RS. The immunized mice were allocated to five treatment groups as follows: placebo, 25, 50, 100 and 200 μg/mouse of Compound 1 DP (subcutaneous administration). Ten days post immunization and treatment, LN was extracted and single cell suspension was prepared. The in-vitro secretion of IFN-γ and TGF-β by the cultured cells in response to activation with several concentrations of Compound 1 RS was then measured. [table] [table] Mice: 20 female BALB/c mice, supplied by Harlan animals breeding center, Rehovot. Age at immunization (week+days): 10 Average weight of mice included in the experiment: 19.01 gr. The immunization was performed by injecting 100 microliters of the immunization emulsion (50 microliters into each hind footpad). […] Mice were sacrificed by cervical dislocation. LN were extracted from the hind legs and were transferred to a sterile petri dish containing about 5 mL RPMI. The cells were extracted by gentle squeezing of the tissue against a 200 micrometer mesh stainless steel net. The cells were collected and centrifuged at 300 G for 10 minutes at RT. Single cell suspensions were prepared from pooled LN of each experimental group. […] Secretion of IFN-γ and TGF-β, as indication of cellular response, were determined by ELISA of culture media (48 hrs for IFN-γ and 72 hrs for TGF-β).

(NZB×NZW)F1 female mice = test: Lupus symptoms in SLE-prone (NZB×NZW)F1 female mice; type: in vivo, mouse
Method: The same batch of drug substance was used in this study and in the first Phase I clinical trial with Compound 1. The mice were followed for anti-dsDNA antibodies and for proteinuria. When the mice were sacrificed, the intensity of ICD was determined in kidneys.

[2] = single s.c. 0.5, 1 or 2.5 mg in Captisol®

## H-GYYWSWIRQPPGKGEEWIG-OH [Compound 1]
[1]
  Percent Inhibition of proliferation, Mean ± SD: 68.12 ± 9.57%
[1]; FIG. 10
  inhibition of proliferative responses to human 16/6Id mAb: inhibited efficiently
[1]; FIG. 11
  inhibition of proliferative responses to human 16/6Id mAb: did inhibit efficiently
[1]; of the 19 responders tested
  responders whose PBL proliferation was inhibited (above 50%): 84.2%
SLE subjects; [2]
  QTc change from baseline: no QTc change from baseline>60 msec
  categorical ECG measurements and digitized ECG parameters versus placebo: No differences of clinical significance
  hematology, biochemistry or urinalysis values: No clinically significant effect
  incidence of AEs versus placebo: no prominent difference
  physical exam: No clinically significant effects
  serious or severe adverse events: No serious adverse event (SAE) or AE classified as severe occurred
  temperature and weight: No clinically significant effect
  vital signs (systolic, diastolic blood pressure, pulse, oxygen saturation): No clinically significant effect
SLE subjects; single s.c. dose in Captisol®
  immunological response to tetanus toxoid (TTX) recall antigen: did not change
SLE subjects; single s.c. dose of 0.5, 1 or 2.5 mg in 120 mg Captisol®
  safety and tolerability: safe and well tolerated
LN cells; treated 25 μg/M s.c., 5 million cells/well, activation Compound 1 3.125 μg/ml
  Final cytokine (IFN-γ): BQL
LN cells; treated 25 μg/M s.c., 5 million cells/well, activation Compound 1 6.25 μg/ml
  Final cytokine (IFN-γ): BQL
LN cells; treated 25 μg/M s.c., 5 million cells/well, activation Compound 1 12.5 μg/ml
  Final cytokine (IFN-γ): 41.9 pg/mL
LN cells; treated 25 μg/M s.c., 5 million cells/well, activation Compound 1 50 μg/ml
  Final cytokine (IFN-γ): 104.2 pg/mL
LN cells; treated 25 μg/M s.c., 5 million cells/well, activation Compound 1 100 μg/ml
  Final cytokine (IFN-γ): 185.2 pg/mL
LN cells; treated 25 μg/M s.c., 5 million cells/well, activation Compound 1 25 μ/ml
  Final cytokine (IFN-γ): 70.0 pg/mL
LN cells; treated 25 μg/M s.c., 5 million cells/well, activation Con A
  Final cytokine (IFN-γ): 2995.3 pg/mL
LN cells; treated 50 μg/M s.c., 2.5 million cells/well, activation Compound 1 3.125 μg/ml
  Final cytokine (IFN-γ): 54.1 pg/mL
LN cells; treated 50 μg/M s.c., 2.5 million cells/well, activation Compound 1 6.25 μg/ml
  Final cytokine (IFN-γ): 81.8 pg/mL
LN cells; treated 50 μg/M s.c., 2.5 million cells/well, activation Compound 1 12.5 μg/ml
  Final cytokine (IFN-γ): 123.1 pg/mL
LN cells; treated 50 μg/M s.c., 2.5 million cells/well, activation Compound 1 50 μg/ml
  Final cytokine (IFN-γ): 292.5 pg/mL
LN cells; treated 50 μg/M s.c., 2.5 million cells/well, activation Compound 1 100 μg/ml
  Final cytokine (IFN-γ): 531.8 pg/mL
LN cells; treated 50 μg/M s.c., 2.5 million cells/well, activation Compound 1 25 μ/ml
  Final cytokine (IFN-γ): 215.1 pg/mL
LN cells; treated 50 μg/M s.c., 2.5 million cells/well, activation Con A
  Final cytokine (IFN-γ): 356.2 pg/mL
LN cells; treated 50 μg/M s.c., 5 million cells/well, activation Compound 1 3.125 μg/ml
  Final cytokine (IFN-γ): 76.2 pg/mL
LN cells; treated 50 μg/M s.c., 5 million cells/well, activation Compound 1 6.25 μg/ml
  Final cytokine (IFN-γ): 109.2 pg/mL
LN cells; treated 50 μg/M s.c., 5 million cells/well, activation Compound 1 12.5 μg/ml
  Final cytokine (IFN-γ): 179.5 pg/mL
LN cells; treated 50 μg/M s.c., 5 million cells/well, activation Compound 1 50 μg/ml
  Final cytokine (IFN-γ): 373.4 pg/mL
LN cells; treated 50 μg/M s.c., 5 million cells/well, activation Compound 1 100 μg/ml
  Final cytokine (IFN-γ): 547.0 pg/mL
LN cells; treated 50 μg/M s.c., 5 million cells/well, activation Compound 1 25 μ/ml
  Final cytokine (IFN-γ): 277.9 pg/mL
LN cells; treated 50 μg/M s.c., 5 million cells/well, activation Con A
  Final cytokine (IFN-γ): 4837.0 pg/mL
LN cells; treated 100 μg/M s.c., 2.5 million cells/well, activation Compound 1 3.125 μg/ml
  Final cytokine (IFN-γ): 64.5 pg/mL
LN cells; treated 100 μg/M s.c., 2.5 million cells/well, activation Compound 1 6.25 μg/ml
  Final cytokine (IFN-γ): 116.1 pg/mL
LN cells; treated 100 μg/M s.c., 2.5 million cells/well, activation Compound 1 12.5 μg/ml
  Final cytokine (IFN-γ): 180.9 pg/mL
LN cells; treated 100 μg/M s.c., 2.5 million cells/well, activation Compound 1 50 μg/ml
  Final cytokine (IFN-γ): 518.3 pg/mL
LN cells; treated 100 μg/M s.c., 2.5 million cells/well, activation Compound 1 100 μg/ml
  Final cytokine (IFN-γ): 582.7 pg/mL
LN cells; treated 100 μg/M s.c., 2.5 million cells/well, activation Compound 1 25 μ/ml
  Final cytokine (IFN-γ): 262.8 pg/mL
LN cells; treated 100 μg/M s.c., 2.5 million cells/well, activation Con A
  Final cytokine (IFN-γ): 337.4 pg/mL
LN cells; treated 100 μg/M s.c., 5 million cells/well, activation Compound 1 3.125 μg/ml
  Final cytokine (IFN-γ): 90.8 pg/mL
LN cells; treated 100 μg/M s.c., 5 million cells/well, activation Compound 1 6.25 μg/ml
  Final cytokine (IFN-γ): 157.8 pg/mL
LN cells; treated 100 μg/M s.c., 5 million cells/well, activation Compound 1 12.5 μg/ml
  Final cytokine (IFN-γ): 257.1 pg/mL
LN cells; treated 100 μg/M s.c., 5 million cells/well, activation Compound 1 50 μg/ml
  Final cytokine (IFN-γ): 739.7 pg/mL
LN cells; treated 100 μg/M s.c., 5 million cells/well, activation Compound 1 100 μg/ml
  Final cytokine (IFN-γ): 995.5 pg/mL
LN cells; treated 100 μg/M s.c., 5 million cells/well, activation Compound 1 25 μ/ml
  Final cytokine (IFN-γ): 421.7 pg/mL
LN cells; treated 100 μg/M s.c., 5 million cells/well, activation Con A
  Final cytokine (IFN-γ): 10126.8 pg/mL
LN cells; treated 200 μg/M s.c., 2.5 million cells/well, activation Compound 1 3.125 μg/ml
  Final cytokine (IFN-γ): 103.9 pg/mL
LN cells; treated 200 μg/M s.c., 2.5 million cells/well, activation Compound 1 6.25 μg/ml
  Final cytokine (IFN-γ): 126.1 pg/mL
LN cells; treated 200 μg/M s.c., 2.5 million cells/well, activation Compound 1 12.5 μg/ml
  Final cytokine (IFN-γ): 129.0 pg/mL
LN cells; treated 200 μg/M s.c., 2.5 million cells/well, activation Compound 1 50 μg/ml
  Final cytokine (IFN-γ): 378.1 pg/mL
LN cells; treated 200 μg/M s.c., 2.5 million cells/well, activation Compound 1 100 μg/ml
  Final cytokine (IFN-γ): 524.1 pg/mL
LN cells; treated 200 μg/M s.c., 2.5 million cells/well, activation Compound 1 25 μ/ml
  Final cytokine (IFN-γ): 240.3 pg/mL
LN cells; treated 200 μg/M s.c., 2.5 million cells/well, activation Con A
  Final cytokine (IFN-γ): BQL
LN cells; treated 200 μg/M s.c., 5 million cells/well, activation Compound 1 3.125 μg/ml
  Final cytokine (IFN-γ): 204.4 pg/mL
LN cells; treated 200 μg/M s.c., 5 million cells/well, activation Compound 1 6.25 μg/ml
  Final cytokine (IFN-γ): 244.1 pg/mL
LN cells; treated 200 μg/M s.c., 5 million cells/well, activation Compound 1 12.5 μg/ml
  Final cytokine (IFN-γ): 466.1 pg/mL
LN cells; treated 200 μg/M s.c., 5 million cells/well, activation Compound 1 50 μg/ml
  Final cytokine (IFN-γ): 922.5 pg/mL
LN cells; treated 200 μg/M s.c., 5 million cells/well, activation Compound 1 100 μg/ml
  Final cytokine (IFN-γ): 1006.2 pg/mL
LN cells; treated 200 μg/M s.c., 5 million cells/well, activation Compound 1 25 μ/ml
  Final cytokine (IFN-γ): 660.5 pg/mL
LN cells; treated 200 μg/M s.c., 5 million cells/well, activation Con A
  Final cytokine (IFN-γ): 7722.8 pg/mL
LN cells; treated dose of 25 μg/mouse
  average inhibition of IFN-γ secretion: 95%
(NZB×NZW)F1 female mice; 25 μg/mouse s.c. once a week in Captisol®, 5 weeks following treatment initiation
  Mean Proteinuria ± SEM: 0.16 ± 0.05 g/L
(NZB×NZW)F1 female mice; 25 μg/mouse s.c. once a week in Captisol®, 7 weeks following treatment initiation
  Mean Proteinuria ± SEM: 1.26 ± 1.09 g/L
(NZB×NZW)F1 female mice; 25 μg/mouse s.c. once a week in Captisol®, 8 weeks following treatment initiation
  Mean Proteinuria ± SEM: 0.5 ± 0.31 g/L
(NZB×NZW)F1 female mice; 25 μg/mouse s.c. once a week in Captisol®, 10 weeks following treatment initiation
  Mean Proteinuria ± SEM: 0.56 ± 0.3 g/L
(NZB×NZW)F1 female mice; 50 μg/mouse s.c. once a week in Captisol®, 5 weeks following treatment initiation
  Mean Proteinuria ± SEM: 0.75 ± 0.3 g/L
(NZB×NZW)F1 female mice; 50 μg/mouse s.c. once a week in Captisol®, 7 weeks following treatment initiation
  Mean Proteinuria ± SEM: 0.81 ± 0.3 g/L
(NZB×NZW)F1 female mice; 50 μg/mouse s.c. once a week in Captisol®, 8 weeks following treatment initiation
  Mean Proteinuria ± SEM: 1.09 ± 0.4 g/L
(NZB×NZW)F1 female mice; 50 μg/mouse s.c. once a week in Captisol®, 10 weeks following treatment initiation
  Mean Proteinuria ± SEM: 1.29 ± 0.3 g/L
(NZB×NZW)F1 female mice; 50 μg/mouse, kidneys at sacrifice, scale 0 = none, 1 = moderate, 2 = severe, 3 = severe/extremely intense
  ICD (Immune Complex Deposits) intensity, Mean ± SEM: 1.90 ± 0.23
(NZB×NZW)F1 female mice; 25 or 50 μg/mouse, after 10 treatment injections
  levels of dsDNA-specific antibodies versus control: no significant differences
(NZB×NZW)F1 female mice; either dose level (25 or 50 μg/mouse), FIG. 6
  intensity of immune complex deposits in kidney sections versus control group: much lower
